Where two headings read alike, the source gives them in different places.
What was measured:
[1] = Cyclic voltammetry (CV) in three-electrode cells; assay type: physicochemical; conditions: for Formal potential (E^o′): CV; for Formal potential (E^o′) / E^o′: 4 mM in 0.1 M TBATFSI/MeCN
Experimental: All electrochemical examinations were carried out using a Biologic VMP3 electrochemical workstation in an Ar-filled glove box (MOTek, negligible O2 and H2O, tested by the ketyl solution).
Cyclic voltammetry (CV) was conducted in three-electrode cells comprised of glassy carbon (GC; diameter (d)=3 mm) as the working electrode (WE), a platinum wire as the counter electrode (CE), and a leak-free Ag/AgCl as the reference electrode (RE). The GC electrodes were polished using alumina slurry before testing (ALS Co., Ltd).
After CV analysis, ferrocene (Fc, ferrocene, 98%, Sigma-Aldrich) was added to the cell to measure its redox potential, and the measured sample potential was converted to the Fc/Fc^+.

[2] = Radical stability, UV-Vis time-dependent concentration decay; assay type: physicochemical; conditions: for time-dependent concentration decay of the radical: in 0.5 M TBATFSI/MeCN
Text: FIG. 10—Radical stability of TMAP-BTP^·+ and BTP^·. (a-b) UV-Vis spectra of (a) TMAP-BTP^·+ and (b) BTP^· in 0.5 M TBATFSI/MeCN. (c-d) Calculated time-dependent concentration decay of (c) TMAP-BTP^·+ (0.22%/day) and (d) BTP (0.63%/day). Better stability of TMAP-BTP^·+ than BTP^· is presumably attributed to the cationic TMAP groups, which repel the redox molecules and prevent chemical reactions.

[3] = expected from the permeability
[4] = Rotating disk electrode LSV, diffusion coefficient (Levich equation); assay type: physicochemical
Experimental: To measure diffusion coefficient (D), rotating disk electrode (RDE; ALS Co., Ltd) measurements were conducted with the same three-electrode cells. […] Limited mass-transport provides a current plateau (iL) of redox processes, which is linearly proportional to the square root of the rotating rates (ω^1/2). The diffusion coefficient (D) was calculated by plotting IL as a function of ω^1/2 and through the Levich equation (equation S1). iL=0.620nFAD^2/3ω^1/2η^−1/6Co (equation S1)
where IL is the limiting current (A cm^−2), n is the number of electrons transferred during the redox reaction, F is the Faraday's constant (96485 C mol^−1), A is the area of the electrode (0.0707 cm^2), D is the diffusion coefficient (cm^2 […]), ω is the angular rotation rate (rad s^−1), η is the kinematic viscosity (0.00442 cm^2 s^−1, referred to 0.1 M TBAPF6/MeCN), and Co is the concentration of the sample chemical.

[5] = Electron-transfer rate from CV curves (Nicholson method); assay type: physicochemical
Experimental: The electron-transfer rate (k^0) was calculated from CV curves and using the Nicholson method(equation S2).
where k^o is the electron-transfer constant (cm/s), D is the diffusion coefficient estimated from the above RDE studies, R is the gas constant (8.314 J K^−1 mol^−1), T is the temperature (298 K), v is the scan rate of the CVs (mV s^−1).
The Ψ value was obtained by Kingler and Kochi relation (equation S3).
where ΔEp is the peak-to-peak potential for the corresponding reduction or oxidation event.

[6] = Solubility test (UV-vis calibration curves, maximum solubility); conditions: organic solvent or mixture, thermodynamic from solid
[7] = 1st event (single value for BTMAP-Fc), after 100 cycles (in parentheses)
[8] = 1st event (single value for BTMAP-Fc), initial
[9] = 2nd event, after 100 cycles (in parentheses)
[10] = c1, first cathodic event (single value for BTMAP-Fc, oxidation process)

C[n+]1ccc(-c2nc3ccccc3s2)cc1 [BTP^+]
cyclability in the CV profile ([1]; 100 CV cycles, FIGS. 6 and 7): excellent cyclability | time-dependent concentration decay of the radical [2]: 0.63 %/day | time required for 10% decay associated with the crossover [3]: 0.047 year | time required for 10% decay associated with the crossover ([3]; listed as BTP^·): 0.0065 year

C[N+](C)(C)CCC[n+]1ccc(-c2nc3ccccc3s2)cc1 [TMAP-BTP^2+]
Formal potential (E^o′) ([1]; first redox event (single event for BTMAP-Fc)): −1.19 V vs. Fc/Fc^+ | peak-to-peak potential difference (ΔEp) ([1]; maintained for 100 CV cycles): 105 mV | anodic-to-cathodic peak current ratio (Ipa/Ipc) ([1]; preserved during 100 CV cycles): close to unity | Formal potential (E^o′) ([1]; second redox event): −1.87 V vs. Fc/Fc^+ | diffusion coefficient (D) ([4]; 0.1 M TBATFSI/MeCN): 1.91×10^−6 cm^2 s^−1 | electron-transfer constant (k^o) ([5]; 0.1 M TBATFSI/MeCN): ~0.1 cm/s | time the reduced form remained stable in the electrolyte solution ([2]; electrolyte solution): 4 days | time-dependent concentration decay of the radical [2]: 0.22 %/day | time required for 10% decay associated with the crossover [3]: 0.37 year | time required for 10% decay associated with the crossover ([3]; listed as TMAP-BTP^·+): 0.094 year

C[N+](C)(C)CCC[n+]1ccc(-c2nc3ccccc3s2)cc1 [TMAP-BTP^2+·2TFSI^−, 4-(benzo[d]thiazol-2-yl)-1-(3-(trimethylammonio)propyl)pyridin-1-ium bistriflimide]
Ipa/Ipc @50 mV s^−1 [1, 7]: (0.97) | ΔEp [1, 7]: (105) mV | Ipa/Ipc @50 mV s^−1 [1, 8]: 1st = 0.97 | ΔEp [1, 8]: 1st = 105 mV | E^o′ ([1]; 1st redox event (single value for BTMAP-Fc)): 1st = −1.19 V vs. Fc/Fc^+ | Ipa/Ipc @50 mV s^−1 [1, 9]: (1.18) | ΔEp [1, 9]: (85) mV | Ipa/Ipc @50 mV s^−1 ([1]; 2nd event, initial): 2nd = 1.08 | ΔEp ([1]; 2nd event, initial): 2nd = 94 mV | E^o′ ([1]; 2nd redox event): 2nd = −1.87 V vs. Fc/Fc^+ | D (diffusion coefficient) [4, 10]: c1 = 1.91 X10^−6 cm^2 s^−1 | D (diffusion coefficient) ([4]; c2, second cathodic event): c2 = 1.91 X10^−6 cm^2 s^−1 | k^o (electron-transfer constant) [5, 10]: c1 = 0.114 cm s^−1 | k^o (electron-transfer constant) ([5]; c2, second cathodic event): c2 = 0.124 cm s^−1 | solubility ([6]; 0.5 M TBATFSI in MeCN, Solubility 0.5M TBATFSI/MeCN (M), electrolyte solution 0.5M TBATFSI/MeCN): 0.34 M | solubility ([6]; 0.5 M TBATFSI in MeCN, maximum solubility in electrolyte solution, 0.5 M TBATFSI/MeCN): 0.34 M | solubility ([6]; MeCN, Solubility MeCN (M), in MeCN): 0.89 M

Reference: patent US12643893B2, “Heteroaryl-pyridinium compound and redox flow battery comprising the same” (Korea Advanced Institute of Science and Technology, priority 2021, dated 2026)
